Experimental data reported in patent US20230190933A1, “Immunologically Active Peptide-Biliverdin Conjugate, Preparation Method Therefor and Application Thereof” (priority 2020, published 2023).
Where no end group is shown, it is not given here.

Experiments:
[1] = test system: Human Umbilical Vein Endothelial Cells HUVEC; test: MTT colorimetric method, incubation in the dark; format: cell-based; details: different concentration gradients
Description: The biliverdin-[…] conjugate was prepared from biliverdin molecule and […] according to the chemical synthesis method of Example 1. […] The prepared conjugates with different concentration gradients were incubated with Human Umbilical Vein Endothelial Cells HUVEC in the dark, and the biological safety of the conjugates was evaluated by MTT colorimetric method.

[2] = cyclic (three) photothermal heating curves; format: physicochemical; details: compared with biliverdin molecule; three heating cycles
[3] = temperature rise in vitro under laser irradiation; format: physicochemical; details: 0.2 mg mL^-1, 730 nm laser, 0.3 W/cm^2, 10 min
Description: Firstly, biliverdin-Mn metal complex was chemically synthesized by biliverdin and excess manganese acetate tetrahydrate, and the biliverdin-Mn-[…] conjugate was prepared from biliverdin-Mn metal complex and […] according to the aforementioned chemical synthesis method. […] 1 mL of this conjugate (at a concentration of 0.2 mg mL^-1) was irradiated at 730 nm laser (0.3 W/cm^2) for 10 min, and the temperature rise of the conjugate solution was investigated.

lung cancer Lewis = test: combination of photothermal immunotherapy and immunotherapy (interferon); format: in vivo; details: conjugate 3 mg kg^-1 combined with interferon 20U/ mouse, initial volume 300 mm^3
Description: (§1) The biliverdin-[…] conjugate was prepared from biliverdin molecule and […] according to the above chemical synthesis method.

skin melanoma B16-F10 = test: as above; format: in vivo; details: conjugate 3 mg kg^-1 combined with interferon 20U/ mouse, initial volume 300 mm^3
Description: as §1

[4] = test system: mouse breast cancer cells 4T1; details: absence of light; 100 uL of 0.2 mg mL^-1 intraperitoneally on day 1, 2, 4, 8; 28 days
[5] = test system: cervical cancer U14 mouse model; details: 5 mg kg^-1 intraperitoneally; 2nd, 4th and 7th day
[6] = test system: in-situ model of pancreatic cancer Pan02; details: 4 mg kg^-1, presence and absence of light (730 nm, 0.5 W/cm^2), 15th day
[7] = test system: mouse colon cancer cells ct-26
Description: According to the standard tumor mouse modeling method, C57BL/6 mouse model was established, and the mouse colon cancer cells ct-26 were inoculated subcutaneously, and then these mice were fed in SPF environment. […] The mice were divided into the following four groups: blank group (normal saline), conjugate group (no light group) and conjugate group (light group), with 10 mice in each group. These mice were administered once on the 1st, 3rd, 8th and 12th day with the administration concentration being 2 mg kg^-1. Wherein, the mice of the conjugate (light group) were irradiated with laser once 4 hours after administration on the first day, and the parameters were as follows: the laser intensity was 0.5 W/cm^2 and the laser wavelength was 808 nm. The tumor inhibition of mice during the whole treatment cycle (the cycle is 45 days) was monitored.

Q: Which “cytotoxicity (cell activity)” value [1] does the source give for “biliverdin-SIINFEKL conjugate [Example 1]” here?
A: no obvious cytotoxicity

Q: What about the “cyclic stability of photothermal heating” value [2] of the same substance?
A: better cyclic stability

Q: And the photothermal heating effect [2]?
A: better heating effect

Q: Which “photo-thermal conversion effect (temperature rise)” value [3] does the source give for “biliverdin-Mn-YLEPGPVTA conjugate [Example 7]” here?
A: good photo-thermal conversion effect

Q: For “biliverdin-PDRAHYNI conjugate [Example 15]”, which “combined inhibitory effect on tumor” value (lung cancer Lewis) is on record?
A: significantly enhances the anti-tumor effect

Q: And the “combined inhibitory effect on tumor” value (skin melanoma B16-F10)?
A: significantly enhances the anti-tumor effect

Q: Which “anti-tumor behavior (tumor volume)” value [4] does the source give for “biliverdin-IMDQVPFSV conjugate [Example 8]” here?
A: potential immune anti-tumor activity

Q: Which “immune effect (CD4+T and CD8+T cells in spleen and draining lymph nodes)” value [5] does the source give for “biliverdin-EQLESIINFEKLTE conjugate [Example 13]” here?
A: has immune effect

Q: For “biliverdin-Ga-FKFEFKFE conjugate [Example 10]”, which “immune promoting factor content in tumor (IFN-7)” value [6] is on record?
A: up-regulate the organism’s immunity

Q: And the “immune suppressing factor content in tumor (IL-4 and IL-10)” value [6]?
A: down-regulate the immunosuppressive behavior

Q: For “biliverdin-QQKFQFQFEQQ conjugate [Example 9]”, which “therapeutic effect of tumor photothermal immunotherapy (tumor inhibition curve)” value ([7]; 2 mg kg^-1 on day 1, 3, 8, 12, 45 day cycle) is on record?
A: good therapeutic effect

Q: And the tumor clearance ([7]; light group, 2 mg kg^-1, 808 nm 0.5 W/cm^2, 29th day after treatment)?
A: all the mice tumors were cleared

Q: And the tumor recurrence ([7]; light group, monitored from the 30th day to the 45th day)?
A: can effectively prevent tumor recurrence
